Experimental data as given in US11944608B2, “Targeting RNA viruses using inhibitors of METTL3” (priority 2020, dated 2024).
“Also recorded” adds a separate entry of the source. Read-outs that look alike come from different tables or passages of the source.

Assays:
A549+ACE2 cells = conditions: 48 h, FIG. 11B
hCoV-OC43 [1] = experiment: hCoV-OC43 replication and spread in MRCS cells, N protein immunofluorescence, high-content imaging; type: cell-based
Procedure: FIG. 2. Inhibiting METTL3 in lung fibroblasts suppresses hCOV-OC43 replication. (A) MRCS cells infected with hCOV-OC43 [MOI=0.001] were treated with vehicle (DMSO), control compound (M3c), active METTL3 inhibitor (M3i) or (+) control antiviral remdesivir (rem). Viral spread through the culture was determined by immunofluorescence using an antibody to the hCoV-OC43 nucleocapsid protein (green stain). (B) Quantitation of N protein positive cells from (A) (n=3; **P<0.005; *P<0.05 by t-test for M3c vs M3i). Suppression of viral replication by M3i is evident from >0.5 mM and higher. (C) Test compounds (3 mM) have no significant impact on MRCS viability (n=3) after 48 h of treatment.
To evaluate how METTL3 enzymatic activity impacted coronavirus reproduction, we compared the activity of a specific METTL3 chemical inhibitor (Tzelepis et al., 2019), here termed M3i, to a structurally related control compound M3c unable to inhibit METTL3. […] To measure coronavirus replication, we developed an assay (FIG. 2A) that uses indirect immunofluorescence to detect coronavirus nucleocapsid protein (N) to monitor and quantify virus reproduction and spread using a high-content imaging platform (Cellinsight CX7 LZR). […] In FIG. 2C, the bars from left to right indicate DMSO, M3c, M3i, and remdesivir. […] In FIG. 3A, the bars from left to right represent DMSO, M3c and M3i. In FIG. 3B, the bars represent Not Treated, M3c and M3i. […] It is believed this requirement will extend to other RNA viruses, including coronaviruses with pandemic potential. The data further provide proof in principle that the cellular m^6A modification machinery represents an unexpected host target for anti-coronavirus drug targeting.

hCoV-OC43 [2] = experiment: hCoV-OC43 infectious virus production from MRCS cells by TCID50; type: cell-based; conditions: for hCoV-OC43 infectious virus production: TCID50 after 48h, compared to equivalent concentrations of M3c or DMSO; for efficacy compared with remdesivir: hCoV-OC43 infectious virus production
Procedure: FIG. 8. Inhibiting METTL3 in lung fibroblasts limits hCOV-OC43 infectious virus production. MRCS cells infected with hCOV-OC43 [MOI=0.001] were treated with vehicle (DMSO), control compound (M3c) or active METTL3 inhibitor (M3i2 in A or M3i in B) at the indicated concentration. After 48h, the amount of infectious virus released was quantified by TCID50. N=3. **P<0.01; *P<0.05 by student's t-test.
In FIGS. 7B and 7C, each set of bars from left to right signifies DMSO, M3c and M3i2. […] To determine how METTL3 chemical inhibitors influenced virus production, we quantified and compared infectious virus produced by infected cell cultures treated with vehicle, a control compound (M3c), the two different METTL3 chemical inhibitors (M3i, M3i2) and remdesivir.

SARS-CoV-2 [3] = experiment: SARS-CoV-2 infectious virus titers from A549+ACE2 cells by plaque assay; type: cell-based; conditions: MOI=0.1, 30 μM
Procedure: FIG. 11. Inhibition of METTL3 activity suppresses β-coronavirus replication in A549+ACE2 cells. […] The percentage of cells infected was established by green fluorescence and normalized to infection of nontreated cells. (B) The viability of A549+ACE2 cells in the presence of concentrations of each compound used in the infection assays shown in A was assessed using a commercial ATP quantitation assay. Cells were maintained at 37° C. in culture medium containing diluted compound for 48 h prior to lysis. Each experiment was conducted three times with internal duplicates, normalized to DMSO-treated cells processed in parallel and plotted as the mean±SEM. (C) Representative montages showing wells from the infections quantified in A that were treated with 30 μM M3c or M3i2 and infected with icSARS-CoV-2-mNG. (D) Infectious virus titers from A549+ACE2 cells infected with icSARS-CoV-2-mNG at MOI=0.1 and treated with 30 μM either M3c or M3i2 was determined by plaque assay.
This concordance further validates the high-content imaging assay as a measure of viral replication and release. Thus, a selective small molecule METTL3 inhibitor effectively suppresses the productive replication of human β-coronavirus, pandemic SARS-CoV-2 in a further human lung cell line.

SARS-CoV-2 [4] = experiment: microbe, parasite or virus in culture; type: cell-based
MRCS cells = experiment: MRCS cell viability (ATP, Celltiterglo2.0); type: cell-based, human
Procedure: To determine viability, cells were seeded to opaque white 96-well plates. The next day, cells were drug- or vehicle-treated and incubated as in infection experiments (for example, treated-MRC-5 cells were placed for 48 h at 33° C.). ATP levels were then assayed using Celltiterglo2.0 (Promega G9242) according to the manufacturer's instructions. Luciferase signal was read on a Perkin Elmer Envision 2103 multilabel reader, and 24-h 1 μM staurosporine treatment used as a positive control for assay sensitivity.

viral dsRNA = experiment: Viral dsRNA accumulation, immunofluorescence with J2 dsRNA-specific antibody; type: cell-based
SARS-CoV-2 [5] = type: cell-based; conditions: FIG. 3A
viral RNA = experiment: Viral RNA accumulation by RT-qPCR; type: cell-based; conditions: RT-qPCR (not shown)
[6] = test system: coronavirus nucleocapsid protein (N); type: cell-based; conditions: infected MRCS cells, 24 h treatment / 24 hpi
METTL3 = METTL3 (Homo sapiens, UniProt Q86U44); conditions: Tzelepis et al., 2019; cited from earlier work
METTL3, sequence (Q9HCE5 whole entry): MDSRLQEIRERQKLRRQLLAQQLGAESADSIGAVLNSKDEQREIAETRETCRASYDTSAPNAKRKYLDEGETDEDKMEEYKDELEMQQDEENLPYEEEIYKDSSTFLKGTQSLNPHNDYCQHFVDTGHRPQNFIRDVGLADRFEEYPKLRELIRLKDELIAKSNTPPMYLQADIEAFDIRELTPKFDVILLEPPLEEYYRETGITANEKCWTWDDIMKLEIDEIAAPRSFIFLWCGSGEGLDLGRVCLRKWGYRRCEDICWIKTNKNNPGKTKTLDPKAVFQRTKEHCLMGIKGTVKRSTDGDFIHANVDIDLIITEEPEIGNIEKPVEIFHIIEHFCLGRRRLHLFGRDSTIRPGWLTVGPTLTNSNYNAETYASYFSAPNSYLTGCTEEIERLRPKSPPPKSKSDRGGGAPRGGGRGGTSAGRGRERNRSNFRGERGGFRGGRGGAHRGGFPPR
METTL3, sequence (Q86U44 whole entry): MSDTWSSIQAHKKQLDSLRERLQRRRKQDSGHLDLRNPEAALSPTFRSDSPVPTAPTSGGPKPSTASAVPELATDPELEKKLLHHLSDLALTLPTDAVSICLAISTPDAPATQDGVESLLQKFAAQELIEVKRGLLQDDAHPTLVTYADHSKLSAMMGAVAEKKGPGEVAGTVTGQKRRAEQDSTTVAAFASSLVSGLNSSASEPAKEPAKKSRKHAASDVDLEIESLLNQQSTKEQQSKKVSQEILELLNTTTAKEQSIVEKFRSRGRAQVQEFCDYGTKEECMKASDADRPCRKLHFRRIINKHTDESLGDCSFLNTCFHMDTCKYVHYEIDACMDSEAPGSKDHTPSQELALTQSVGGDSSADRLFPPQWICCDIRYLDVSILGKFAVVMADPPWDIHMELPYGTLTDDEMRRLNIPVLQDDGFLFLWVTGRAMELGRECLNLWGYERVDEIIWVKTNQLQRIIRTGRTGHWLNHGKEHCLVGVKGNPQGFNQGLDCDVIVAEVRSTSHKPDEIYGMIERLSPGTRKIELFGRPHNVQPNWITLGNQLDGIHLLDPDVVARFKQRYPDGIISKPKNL

Compound: O=C(NCc1cn2cc(CNCC3CCCCC3)ccc2n1)c1cc(=O)n2ccccc2n1 [M3i2]
- viability of A549+ACE2 cells (A549+ACE2 cells): Minor differences
- hCoV-OC43 reproduction and spread through MRCS cells (hCoV-OC43 [1]; 10 μM, compared to control compound M3c): inhibited
- hCoV-OC43 infectious virus production (hCoV-OC43 [2]): reduced
- efficacy compared with remdesivir (hCoV-OC43 [2]; FIG. 8): neither were as efficacious as remdesivir
- reduction of SARS-CoV-2 infectious virus production (SARS-CoV-2 [3]): 300 fold
- IC50 (SARS-CoV-2 [4]; Severe acute respiratory syndrome coronavirus 2, A549+ACE2 cells, read-out: IC50 against SARS-CoV-2): 16.8 µM
- icSARS-CoV-2-mNG-infected A549+ACE2 cells (SARS-CoV-2 [4]; higher concentrations, compared with DMSO or M3c): clearly reduced
- effects on cell viability (MRCS cells; 10 μM, MRCS cells (FIG. 7C)): without any discernible effects

Compound: CC1(C)CCN(Cc2ccc3nc(Cn4cc(-c5cc(Br)cc6[nH]ncc56)nn4)cn3c2)CC1 [M3i]
- concentration at which hCoV-OC43 replication and spread is strongly suppressed (hCoV-OC43 [1]; MRCS cells): ≥ 0.5 µM
- hCoV-OC43 reproduction and spread in MRCS cells (hCoV-OC43 [1]; compared to the inactive compound M3c, FIG. 9): reduced
- viral dsRNA accumulation (viral dsRNA): blocks; also recorded: significant reduction
- reduction of hCoV-OC43 replication compared with M3i2 (hCoV-OC43 [2]; FIG. 8): to a greater extent than M3i2
- hCoV-OC43 infectious virus production (hCoV-OC43 [2]): reduced
- efficacy compared with remdesivir (hCoV-OC43 [2]; FIG. 8): neither were as efficacious as remdesivir
- impact on viability of Calu-3 cell (Calu-3 cells; concentrations of 3 mM or lower): minimal impact
- effects on Calu-3 cell viability (Calu-3 cells; over the dosage range tested (FIG. 3B)): negligible detectable effects
- SARS-CoV-2 replication in Calu-3 cells (SARS-CoV-2 [5]): significantly reduced
- accumulation of viral RNA (viral RNA): significant reduction
- N accumulation / N expression [6]: reduced
- cell viability of siRNA-treated cultures (MRCS cells; MRCS cells, siRNA-treated, FIG. 9C): did not detectably change
- effects on MRCS cell viability (MRCS cells; over the dosage range tested (FIG. 2C)): negligible detectable effects
- selectivity for METTL3 (METTL3): highly selective

Compound: AGGAGCCAGCCAAGAAAUCAA[dT][dT] [METTL3-2]
- hCoV-OC43 replication and spread (N protein positive cells) after METTL3 depletion (hCoV-OC43 [1]; cultures treated with M3c): not
- hCoV-OC43 replication and spread (N protein positive cells) after METTL3 depletion (hCoV-OC43 [1]; cultures treated with M3i): increased

Compound: CACCUACGGACAGCUCAGU[dT][dT] [siRNA #4]
- reduction of the percentage of infected (mNeonGreen-positive) cells (SARS-CoV-2 [4]): 89%

Compound: CUGCAAGUAUGUUCACUAUGA[dT][dT [METTL3-1]
- hCoV-OC43 replication and spread (N protein positive cells) after METTL3 depletion (hCoV-OC43 [1]; cultures treated with M3c): not
- hCoV-OC43 replication and spread (N protein positive cells) after METTL3 depletion (hCoV-OC43 [1]; cultures treated with M3i): increased

Compound: GAAACGCGGCGUUUGGGCA[dT][dT] [YTHDF1 siRNA #3]
- reduction of the percentage of infected (mNeonGreen-positive) cells (SARS-CoV-2 [4]): 79%

Compound: GUAACGGAGACCAUCAUUU[dT][dT] [YTHDF1 siRNA #1]
- reduction of the percentage of infected (mNeonGreen-positive) cells (SARS-CoV-2 [4]): 68%

Compound: GUCAAUGGGAGUGGGCAUU[dT][dT] [YTHDF1 siRNA #2]
- reduction of the percentage of infected (mNeonGreen-positive) cells (SARS-CoV-2 [4]; siRNA 72 h before infection, MOI=0.1, 48 h, compared with control nonsilencing siRNA): 23%
